Source: patent EP3852878B1, “DICYCLANIL SALT WITH DODECYLBENZENESULFONATE AND USE OF SUCH A SALT IN COMBATING PARASITES” (ICB Pharma Spólka Jawna, priority 2018, dated 2020)

How the values were obtained:
[1] = cited from earlier work
[2] = Comparative solubility tests in water (10% aqueous dispersion mixed, filtered, dicyclanil determined in the filtrate by HPLC); format: physicochemical; settings: laboratory mixer, 20 °C
Procedure: To document the unexpectedly low water solubility of the present salt, i.e. dicyclanil dodecylbenzenesulfonate, comparative solubility tests were carried out after 4 and 24 hours of mixing of 10% aqueous dispersion of the present salt, as well as free dicyclanil alone, in a laboratory mixer at 20 °C, after which the sample was filtered and the free/bound dicyclanil was determined in a filtrate by a HPLC method.

| Compound | solubility ([1]; in water, known dicyclanil salt) [%] | Solubility in water after 4 h of mixing [2] [%] | Solubility in water after 24 h of mixing ([2]; 24 h) [%] | solubility in water ([1]; at 20 °C) |
| --- | --- | --- | --- | --- |
| CS(=O)(=O)O.N#Cc1c(N)nc(NC2CC2)nc1N [salt with methanesulfonic acid] | > 5 |  |  |  |
| 4,6-diamino-2-cyclopropylaminopyrimidine-5-carbonitrile dodecylbenzenesulfonate |  | 0.0490 | 0.0495 |  |
| N#Cc1c(N)nc(NC2CC2)nc1N [Technical dicyclanil TC 99.0%, 4,6-diamino-2-cyolopropylaminopyrimidine-5-carbonitrile] |  | 0.312 |  | approximately 0.3 % by weight |
